# Columns and labels:
# TrkA = target: T1, TrkA (Rattus norvegicus, UniProt P35739); assay: Cytometry binding assay in PC12 with antibody anti-p75; conditions: pre-incubation with the antibody anti-p75; growing NGF
# T1 construct: PC12 cells expressing both TrkA and p75 receptors were cultivated in normal growth medium; endogenous in cells; host or cells: PC12
# Protocol: (§1) In order to assess the binding of G79 to the TrkA (PC12 cells) and TrkB receptors (SH-SY5Y), we performed competitive binding assays by flow cytometry. In order to assess the binding competition between p75 and TrkA, PC12 cells expressing both TrkA and p75 receptors were cultivated in normal growth medium. After detaching cells by trypsin solution, 200,000 cells/well were added to tubes for the following incubations. One tube contains control untreated cells. In the other tubes, cells were pre-incubated for 45 minutes with different concentrations of NGF (0-10-20-50-100 ng/ml), that can directly bind both TrkA and p75 receptors, blocking the possible binding of G79 if it competes for the same receptors. Then, without washing the cells, G79 conjugated with FITC fluorescence (100 ng/ml) was added and so incubated the cells for 1 hour. Samples were read in a cytometer (FCAScan).
# (§2) To detect the binding separately on both receptors, a prior incubation of cells (before NGF incubation) with blocking antibodies was made. The cells were preincubated for 1 hour with blocking antibody anti-p75 (1:100; Chemicon Int.), to detect the binding on TrkA, or blocking antibody anti-TrkA (1:200; AbCam) to detect the binding on p75. […] All the results are expressed as mean channel fluorescence (MCF), which is a measure of the cell surface fluorescence produced by G79-FITC binding.
# [1] = tested on: TrkB and p75 on SH-SY5Y cells; assay: Cytometry binding assay, competition BDNF/G79-FITC in SH-SY5Y; design: species or system human; conditions: growing concentrations of BDNF
# Protocol: as §1, §2
# mice affected by EAE = assay: Experimental autoimmune encephalomyelitis (EAE) model of MS; format: in vivo, C57BL/6 mice
# Protocol: The effect of G79 was tested in the animal model of MS, the experimental autoimmune encephalomyelitis (EAE), by performing a preventive trial (in which the therapy starts at the time of the induction of the disease) and a curative trial (in which the therapy starts when the animals are already suffering from the disease). Female C57BL/6 mice from Harlan (8-12 weeks old) were immunized subcutaneously in both hind pads with 300 μg of myelin oligodendrocyte glycoprotein (MOG) peptide 35-55 (Spikem, Firenze) emulsified with 50 μg of Mycobacterium tuberculosis (H37Ra strain; Difco, Detroit, Mich.) in incomplete Freund's adjuvant (IFA) as previously described in Palacios et al., 2007. The mice were injected intraperitoneally with Pertussis toxin (Sigma) (500 ng) at the time of immunization and 2 days later. The animals were weighted and inspected for clinical signs of disease on a daily basis by a blinded observer. The severity of the disease EAE was assessed for 30 days according to the following scale: 0=normal; 0.5=mild limp tail; 1=limp tail; 2=mild paraparesis of the hind limbs, unsteady gait; 3=moderate paraparesis, voluntary movements still possible; 4=paraplegia or tetraparesis; 5=moribund state. At the end of the study, the mice were anesthetized and perfused intracardially with 4% of paraformaldehyde in 0.1 M phosphate buffer (pH 7.6). The brains, spinal cords and spleens were dissected and either fixed or frozen until use. Also serum was obtained from all the animals included in the study. This procedure was approved by the University of Barcelona Committee on Animal Care.
# Two different experiments were performed to assess both the preventive effect and curative effect of G79, compared to other drugs targeting neurotrophin pathway (Gambogic amide and Xaliproden) or one of the first line therapy for the treatment of MS, i.e., Glatiramer acetate.
# For the preventive trial, 10 animals were treated with intraperitoneal injection of G79 at the concentration of 40 mg/kg, 10 animals were treated with intraperitoneal injection of G79 at the concentration of 100 mg/kg, 10 animals were treated with intraperitoneal injection of Gambogic amide at the concentration of 2 mg/kg, 10 animals were treated with oral administration of Xaliproden at the concentration of 10 mg/kg. As both Gambogic amide and Xaliproden were diluted with different percentage of DMSO, 5 animals were treated with intraperitoneal injection of placebo (physiologic solution plus 1% DMSO) and other 5 animals were treated with placebo oral (physiologic solution plus 2.5% DMSO), respectively. The treatments were performed daily, starting after the immunization day.
# For the curative trial, to reduce the discrepancy between the oral administration and intraperitoneal injections, as stress can deeply affect the development of the clinical scores in animals, all the treatments were performed by intraperitoneal injections. For this study, 8 animals were treated with G79 at the concentration of 40 mg/kg, 8 animals were treated with G79 at the concentration of 100 mg/kg, 8 animals were treated with Gambogic amide at the concentration of 2 mg/kg, 8 animals were treated with Xaliproden at the concentration of 10 mg/kg, 8 animals were treated with Glatiramer acetate at the concentration of 5 mg/kg, 8 animals were treated with placebo (physiologic solution plus 2.5% DMSO). The treatments were performed daily starting after the increase of the clinical score at score 2 (after the second day at this score).
# [2] = PAMPA model of passive BBB permeability; format: in vitro ADME; conditions: passive transport
# Protocol: PAMPA is used as an in vitro model of passive BBB permeability. An artificial membrane immobilized on a filter is placed between a donor and acceptor compartment. At the start of the test, a drug is introduced in the donor compartment. Following the permeation period, the concentration of the drug in the donor and acceptor compartments are measured using UV spectroscopy. Therefore the permeability of any compound with a UV chromophore can be determined by this method.
# The tested compound stock solutions were diluted 200-fold in universal buffer at pH 7.4 and added to the donor wells. The filter membrane was coated with PBL in dodecane and the acceptor well was filled with pH 7.4 buffer. The acceptor filter plate was carefully put on the donor plate to form a ‘sandwich’ (consisting of the aqueous donor with test the compound on the bottom, an artificial lipid membrane in the middle, and an aqueous acceptor on the top). The test compound diffused from the donor well through the lipid membrane and into the acceptor well. The ‘sandwich’ was left undisturbed for 18 hrs while the permeation occurred. The concentration of the test compound in the acceptor, the donor, and the reference wells was determined using the UV plate reader. Effective permeability (Pe) of each compound was calculated by using the pION PSR4p software. Samples were analyzed in triplicate and the average of the three runs was reported. Quality control standards were run with each sample set to monitor the consistency of the analysis set.
# [3] = preventive trial, 100 mg/Kg i.p.
# T1 sequence (P35739 33-799): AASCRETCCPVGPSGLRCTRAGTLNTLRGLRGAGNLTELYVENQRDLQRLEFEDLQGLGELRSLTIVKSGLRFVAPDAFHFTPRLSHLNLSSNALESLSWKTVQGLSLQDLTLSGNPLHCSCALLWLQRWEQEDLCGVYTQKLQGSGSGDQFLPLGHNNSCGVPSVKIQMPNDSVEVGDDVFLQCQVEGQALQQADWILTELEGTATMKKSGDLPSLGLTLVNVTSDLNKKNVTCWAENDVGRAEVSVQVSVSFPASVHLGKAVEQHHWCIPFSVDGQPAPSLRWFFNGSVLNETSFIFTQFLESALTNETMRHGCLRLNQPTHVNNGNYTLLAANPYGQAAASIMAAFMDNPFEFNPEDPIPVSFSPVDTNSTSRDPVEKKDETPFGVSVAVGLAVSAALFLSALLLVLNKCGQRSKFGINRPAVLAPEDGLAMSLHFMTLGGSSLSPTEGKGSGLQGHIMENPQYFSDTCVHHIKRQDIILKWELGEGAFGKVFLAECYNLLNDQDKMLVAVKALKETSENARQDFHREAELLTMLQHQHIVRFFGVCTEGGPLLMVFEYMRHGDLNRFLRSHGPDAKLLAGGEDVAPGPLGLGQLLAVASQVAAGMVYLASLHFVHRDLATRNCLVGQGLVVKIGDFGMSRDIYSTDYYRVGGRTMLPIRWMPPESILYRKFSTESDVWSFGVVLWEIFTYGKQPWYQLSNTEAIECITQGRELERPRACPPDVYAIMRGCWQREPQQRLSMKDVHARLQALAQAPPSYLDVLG
smiles,measurement,setting,value
"CC(C)CN(CC(=O)N(CCCN1CCCC1=O)CC(N)=O)C(=O)CNCCc1ccccc1F [Compound G79, [N-(2-(2′-Fluorophenyl)ethyl)glycyl]-[N-(2-methylpropyl)glycyl]-N-[3-(2′-oxopyrrolidinyl)propyl]glycinamide]",binding on TrkA (MCF of G79-FITC),TrkA,apparently does not compete with NGF for the binding on TrkA
same,competition with BDNF for binding (MCF of G79-FITC),[1],competes with BDNF to one of its receptors
same,therapeutic effect in ameliorating the clinical score (in words),"mice affected by EAE; curative trial, 100 mg/Kg i.p.",best therapeutic effect in ameliorating the clinical score
same,clinical score,"mice affected by EAE; curative trial, 100 mg/Kg i.p., 16th day",2.8±1.2
same,clinical score,"mice affected by EAE; curative trial, 100 mg/Kg i.p., day 19th",1.75±1
same,clinical score,"mice affected by EAE; curative trial, 100 mg/Kg i.p., day not printed (between day 16th and 23rd)",1.6±0.8
same,"delaying the disease, comparison of the doses",mice affected by EAE; [3],more effective in delaying the disease
same,final clinical score at day 30th,mice affected by EAE; [3],lower compared to placebo treated animals
same,onset of the disease (clinical score),"mice affected by EAE; preventive trial, G79 40 and 100 mg/kg i.p. daily","delay in the presence of the disease, although not significant"
same,crossing the BBB in the PAMPA model (in words),[2],unable to cross the BBB in the PAMPA model

# Source: patent publication US10106577B2, “Agonists of neurotrophin receptors and their use as medicaments” (BIONURE FARMA, S.L., priority 2010, dated 2018)
